As a reminder, the inhibition is the percentage by which the read-out fell short of the control.

From patent US20070207946A1, “Dipeptidyl peptidase IV inhibitors and their uses for lowering blood pressure levels” (priority 2001, published 2007) come the findings set out here.

In assay [1] the test system is Dipeptidyl Peptidase I (DP I, Cathepsin C). Nature of the assay: Cross reacting enzymes - dipeptidyl peptidase I. In kind it is biochemical. As to conditions: concentration range 1*10^−5 M-1*10^−7M; MES buffer pH5.6. As for the experimental part:
DP I or cathepsin C is a lysosomal cysteine protease which cleaves off dipeptides from the N-terminus of their substrates (Gutman, H. R. & Fruton, J. S., 1948, J. Biol: Chem., 174, 851-858). It is classified as a cysteine protease. The enzyme used was purchased from Qiagen (Qiagen GmbH, Hilden, Germany). In order to get a fully active enzyme, the enzyme was diluted 1000 fold in MES buffer pH5.6 (40 mM MES, 4 mM DTT, 4 mM KCl, 2 mM EDTA, 0.015% Brij) and pre-incubated for 30 min at 30° C.
50 μl glutaminyl pyrrolidine or glutaminyl thiazolidine in a concentration range of 1*10^−5 M-1*10^−7M were admixed with 110 μl buffer-enzyme-mixture. The assay mixture was pre-incubated at 30° C. for 15 min. After pre-incubation, 100 μl histidylseryl-[…]-nitroaniline (2*10^−5M) was added and measurement of yellow color development due to β-nitroaniline release was performed at 30° C. and […] for 10 min., using a plate reader (HTS7000 plus, Applied Biosystems, Weiterstadt, Germany).
The IC50-values were calculated using Graphit 4.0.15 (Erithacus Software, Ltd., UK).

Assay [2] has as its target T1, recombinant human prolyl oligopeptidase (Homo sapiens, UniProt P48147).
T1 construct: made in house; host or cells: E. coli
T1 sequence (P48147 1-710): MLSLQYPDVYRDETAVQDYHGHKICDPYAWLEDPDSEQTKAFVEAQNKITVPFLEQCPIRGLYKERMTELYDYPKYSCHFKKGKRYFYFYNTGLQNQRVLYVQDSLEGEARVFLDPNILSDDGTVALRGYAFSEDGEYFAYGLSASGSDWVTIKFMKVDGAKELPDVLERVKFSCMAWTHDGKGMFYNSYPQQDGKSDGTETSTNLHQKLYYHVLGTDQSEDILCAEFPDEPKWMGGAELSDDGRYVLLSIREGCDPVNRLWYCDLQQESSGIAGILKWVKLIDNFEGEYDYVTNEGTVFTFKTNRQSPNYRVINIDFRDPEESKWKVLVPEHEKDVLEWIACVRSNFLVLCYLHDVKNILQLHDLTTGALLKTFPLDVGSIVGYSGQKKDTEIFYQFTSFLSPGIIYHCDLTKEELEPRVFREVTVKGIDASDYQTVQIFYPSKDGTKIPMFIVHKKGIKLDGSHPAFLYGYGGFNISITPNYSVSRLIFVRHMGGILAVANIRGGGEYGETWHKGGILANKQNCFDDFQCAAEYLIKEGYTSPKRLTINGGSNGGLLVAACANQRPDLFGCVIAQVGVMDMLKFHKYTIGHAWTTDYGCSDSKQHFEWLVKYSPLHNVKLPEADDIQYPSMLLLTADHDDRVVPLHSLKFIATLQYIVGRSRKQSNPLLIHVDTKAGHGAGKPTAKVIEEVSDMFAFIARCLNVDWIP
As to the kind of experiment: Cross reacting enzymes - prolyl oligopeptidase. The assay is classed as biochemical. As to conditions: concentration range 1*10^−4M-5*10^−8 M; pH7.6. As for the experimental part:
Substrates are peptides with a molecular weight up to 3000 Da. The enzyme used was a recombinant human prolyl oligopeptidase. Recombinant expression was performed in E. coli under standard conditions as described elsewhere in the state of the art.
100 μl glutaminyl pyrrolidine or glutaminyl thiazolidine in an concentration range of 1*10^−4M-5*10^−8 M were admixed with 100 μl μl buffer solution (40 mM HEPES, pH7.6, 0.015% Brij, 1 mM DTT) and 20 μl POP solution. The assay mixture was pre-incubated at 30° C. for 15 min. After pre-incubation, 50 μl glycylprolylprolyl-4-nitroaniline solution (0.29 mM) was added and measurement of yellow color development due to 4-nitroaniline release was performed at 30° C. and λ=405 nm for 10 min using a plate reader (sunrise, Tecan, Crailsheim, Germany). The IC50-values were calculated using Graphit 4.0.15 (Erithacus Software, Ltd., UK).

The target in the next assay is T2, plasma DPIV activity (Rattus norvegicus, UniProt P14740).
T2 construct: from tissue; host or cells: plasma of Wistar rats
T2 sequence (P14740 38-767 limits assumed): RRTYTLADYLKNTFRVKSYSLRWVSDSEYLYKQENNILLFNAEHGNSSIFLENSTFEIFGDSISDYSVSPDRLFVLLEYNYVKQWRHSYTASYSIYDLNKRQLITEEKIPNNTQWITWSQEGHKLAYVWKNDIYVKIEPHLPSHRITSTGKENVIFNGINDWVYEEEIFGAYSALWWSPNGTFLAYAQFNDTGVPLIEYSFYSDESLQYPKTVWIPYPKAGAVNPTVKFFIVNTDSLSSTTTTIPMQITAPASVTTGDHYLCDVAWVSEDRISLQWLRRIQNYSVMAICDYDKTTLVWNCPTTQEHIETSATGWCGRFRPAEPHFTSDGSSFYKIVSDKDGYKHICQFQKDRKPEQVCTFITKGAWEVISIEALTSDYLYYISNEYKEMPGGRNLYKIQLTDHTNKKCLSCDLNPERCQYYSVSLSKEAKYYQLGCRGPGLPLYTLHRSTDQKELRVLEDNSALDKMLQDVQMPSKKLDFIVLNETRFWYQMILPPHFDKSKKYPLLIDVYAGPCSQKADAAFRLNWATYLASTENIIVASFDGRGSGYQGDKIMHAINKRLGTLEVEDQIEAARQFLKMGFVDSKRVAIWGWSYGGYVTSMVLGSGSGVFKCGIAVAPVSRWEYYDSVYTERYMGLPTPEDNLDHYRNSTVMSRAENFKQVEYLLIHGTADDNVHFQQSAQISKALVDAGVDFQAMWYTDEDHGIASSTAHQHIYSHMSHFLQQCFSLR
Nature of the assay: DPIV inhibiting activity after intravasal and oral administration to Wistar rats. The assay is classed as in vivo. Conditions: rat. As for the experimental part: Male Wistar rats (Shoe: Wist(Sho)) with a body weight ranging between 250 and 350 g were purchased from Tierzucht Schönwalde (Schönwalde, Germany).
Animals were single-caged under conventional conditions with controlled temperature (22±2° C.) on a 12/12 hours light/dark cycle (light on at 06:00 AM). Standard pelleted chow (ssniff® Soest, Germany) and tap water acidified with HCl were allowed ad libitum.
After ≧one week of adaptation at the housing conditions, catheters were implanted into the carotid artery of Wistar rats under general anaesthesia (i.p. injection of 0.25 ml/kg b.w. Rompun® [2%], BayerVital, Germany and 0.5 ml/kg b.w. Ketamin 10, Atarost GmbH & Co., Twistringen, Germany). The animals were allowed to recover for one week. The catheters were flushed with heparin-saline (100 IU/ml) three times per week. In case of catheter dysfunction, a second catheter was inserted into the contra-lateral carotid artery of the respective rat. After one week of recovery from surgery, this animal was reintegrated into the study. In case of dysfunction of the second catheter, the animal was withdrawn from the study. A new animal was recruited and the experiments were continued in the planned sequence, beginning at least 7 days after catheter implantation.
After overnight fasting, 100 μl samples of heparinised arterial blood were collected at −30, −5, and 0 min. […] In the case of oral administration, an additional volume of 1 ml saline was injected into the arterial catheter. In the case of infra-arterial administration, the catheter was immediately flushed with 30 μl saline and an additional 1 ml of saline was given orally via the feeding tube.
All blood samples were collected into ice cooled Eppendorf tubes (Eppendorf-Netheler-Hinz, Hamburg, Germany) filled with 10 μl 1M sodium citrate buffer (pH 3.0) for plasma DPIV activity measurement. Eppendorf tubes were centrifuged immediately (12000 rpm for 2 min, Hettich Zentrifuge EBA 12, Tuttlingen; Germany): The plasma fractions were stored on ice until analysis or were frozen at −20° C. until analysis. All plasma samples were labelled with the following data:
The assay mixture for determination of plasma DPIV activity consisted of 80 μl reagent and 20 μl plasma sample. […] The DPIV activity was expressed in mU/ml.
All parameters were analysed in a descriptive manner including mean and SD.

Molecules are shown by their SMILES. Like-named read-outs stand apart in the source and are kept apart here.

`NC(=O)CCC(N)C(=O)N1CCCC1` (stereo not shown) [Gln-Pyrr, glutaminyl pyrrolidine]: in assay [1], the “inhibition of DP I enzyme activity” value is given as “No inhibition”. In addition, the “inhibition of POP activity” value in assay [2] was “No inhibition”. Further, the inhibition at 100 mg/kg amounted to 80% at plasma DPIV activity (iv, intra-vasal (intra-arterial) route, read-out: in vivo DPIV-inhibition at tmax, i.v.) and 67% on plasma DPIV activity (oral, read-out: in vivo DPIV-inhibition at tmax, p.o.).
